# Laboratory results as given in patent publication US20040053918A1, “Erythropoietin production potentiator” (KOWA CO., LTD., priority 2002, published 2004).
# Legend:
# Type in all cases: cell-based
# Hep3B cells [1] = experiment: EPO produced by Hep3B cells under 1% O2, ELISA of culture supernatant
# Protocol: (§1) Hep3B cells, which produce EPO at a low O2 partial pressure, were cultured in an amount of 1.5-3.0×10^6 cells/petri dish (100 mm) by use of Dulbecco's modified eagles' medium (DMEM)/10% fetal calf serum (FCS) (10 ml). The next day, the culture liquid of each petri dish was renewed, and a predetermined amount of compound 1 was added thereto, followed by culture for 24 hours at 37° C. under 1% O2 or 21% O2. EPO contained in the resultant culture supernatant was measured through ELISA. Separately, EPO potentiator activity was measured in the following manner. The luciferase-pXP2 (serving as a reporter gene) of a Hep3B wild-type gene was ligated with an enhancer and potentiator fragment (144 bp), to thereby produce a modified Hep3B wild-type gene as Pwt. Hep3B cells were cultured in an amount of 1×10^6 cells/petri dish (30 mm) by use of 4-mL DMEM/10% FCS, and the above modified wild-type (2 μg) and β-galactosidase gene (1 μg) (serving as an internal standard) were inserted into each of the cultured cells through the lipofectin method. […] After completion of culture, luciferase activity and β-galactosidase activity of the resultant cell extract were determined. EPO potentiator activity is represented by the following formula.
# Hep3B cells [2] = experiment: EPO produced by Hep3B cells under 21% O2, ELISA of culture supernatant
# Protocol: as §1
# [3] = test system: EPO enhancer and potentiator fragment luciferase reporter in Hep3B cells; experiment: EPO potentiator activity, luciferase reporter (Pwt) in Hep3B cells, hypoxic induction; details: control HI 52.2±10.7
# Protocol: Hep3B cells, which produce EPO at a low O2 partial pressure, were cultured in an amount of 1.5-3.0×10^6 cells/petri dish (100 mm) by use of Dulbecco's modified eagles' medium (DMEM)/10% fetal calf serum (FCS) (10 ml). […] EPO contained in the resultant culture supernatant was measured through ELISA. Separately, EPO potentiator activity was measured in the following manner. The luciferase-pXP2 (serving as a reporter gene) of a Hep3B wild-type gene was ligated with an enhancer and potentiator fragment (144 bp), to thereby produce a modified Hep3B wild-type gene as Pwt. Hep3B cells were cultured in an amount of 1×10^6 cells/petri dish (30 mm) by use of 4-mL DMEM/10% FCS, and the above modified wild-type (2 μg) and β-galactosidase gene (1 μg) (serving as an internal standard) were inserted into each of the cultured cells through the lipofectin method. […] After completion of culture, luciferase activity and β-galactosidase activity of the resultant cell extract were determined. EPO potentiator activity is represented by the following formula.
# HI (hypoxic induction)=(1% O2 luciferase/β-galactosidase)/(21% O2 luciferase/β-galactosidase)
smiles,measurement,setting,value
"COc1cc(C=CCCCN2CCCN(CCCC=Cc3cc(OC)c(OC)c(OC)c3)CC2)cc(OC)c1OC [compound 1, N,N′-bis(5-(3,4,5-trimethoxyphenyl)-4-pentenyl)homopiperazine]",amount of EPO,"Hep3B cells [1]; 1% O2 (low O2 partial pressure), 24 h, 10 μM compound 1, control 39.5±9.1",71.0±6.0 mU/protein μg
same,amount of EPO,"Hep3B cells [1]; 1% O2, 24 h, 15 μM compound 1, control 39.5±9.1",76.0±13.5 mU/protein μg
same,amount of EPO,"Hep3B cells [1]; 1% O2, 24 h, 30 μM compound 1, control 39.5±9.1",91.5±17.8 mU/protein μg
same,amount of EPO,"Hep3B cells [2]; 21% O2 (normal O2 partial pressure), 24 h, 10 μM compound 1, control 33.6±8.7",49.5±2.3 mU/protein μg
same,amount of EPO,"Hep3B cells [2]; 21% O2, 24 h, 15 μM compound 1, control 33.6±8.7",56.4±2.2 mU/protein μg
same,amount of EPO,"Hep3B cells [2]; 21% O2, 24 h, 30 μM compound 1, control 33.6±8.7",116.8±5.2 mU/protein μg
same,"HI (hypoxic induction), EPO potentiator activity",[3]; 10 μM compound 1 alone,91.0±36.6
same,"HI (hypoxic induction), EPO potentiator activity",[3]; 10 μM compound 1 in the presence of 10^−3M L-NMMA,63.4±7.5
